From patent US4472305A, “Hexapeptide amides” (Sterling Drug Inc., priority 1983, dated 1984)
Where two headings read alike, the source gives them in different places. Non-standard residues stand in square brackets, D forms with d. Residues, ends and D or L forms follow the SMILES beside them. Gly(NCH2CH2Ph) = O=C(O)CNCCc1ccccc1; NMeF = CN[C@@H](Cc1ccccc1)C(=O)O; 4Pal = N[C@@H](Cc1ccncc1)C(=O)O; Dap(Me2) = CN(C)C[C@H](N)C(=O)O; d4Pal = N[C@H](Cc1ccncc1)C(=O)O; dPhg = N[C@@H](C(=O)O)c1ccccc1; NMeL = CN[C@@H](CC(C)C)C(=O)O; Nle = CCCC[C@H](N)C(=O)O; Nphe = O=C(O)CNCc1ccccc1; Dap = NC[C@H](N)C(=O)O; Sar = CNCC(=O)O

Tests used:
SP receptor = target: T1, SP receptor (Rattus norvegicus, UniProt P14600); assay: 3H-SP binding test, rat submaxillary gland tissue; details: for inhibition at 30 µM: read-out: 3H-SP Binding % Inhibition; for effect on 3H-SP binding (specificity): rat submaxillary gland or brain tissue preparation, tissue not specified
T1 construct: from tissue; host or cells: rat submaxillary gland (crude tissue suspension)
Experimental: Crude rat submaxillary gland or brain tissue is suspended in buffer containing protease inhibitors (and calcium ions and magnesium ions in the case of brain tissue) and incubated under nitrogen atmosphere with ^3 H-SP and test compound. The bound SP is then separated from free SP by filtration and quantitated by liquid scintillation spectroscopy. This test meets the criteria of reversibility, saturability, sensitivity to known SP agonists and antagonists, and specificity for an SP receptor binding assay.
With regard to reversibility, addition of unlabelled SP causes a gradual decrease in bound ^3 H-SP, showing that SP is not irreversibly bound to the receptors in the tissue. With regard to saturability, the amount of bound ^3 H-SP in the preparation increases in direct proportion to the concentration of ^3 H-SP added until a saturation point is reached. […] With regard to sensitivity, known SP agonists and antagonists inhibit ^3 H-SP binding.
The results are expressed either as percent inhibition at a concentration of 30 micromoles per liter (μM) or as an IC50 calculated as the concentration in micromoles per liter.
The ^3 H-SP binding test results were obtained using rat submaxillary gland tissue for Examples 1-34 and rat brain tissue for Examples 35-42.

[1] = test system: longitudinal muscle of guinea pig terminal ileum; assay: Guinea pig ileum test (SP agonist and antagonist effect); type: cell-based; details: for Guinea Pig Ileum % Agonism (potency relative to SP): contraction of ileum longitudinal muscle strips, relative molar potency vs SP
Experimental: Strips of longitudinal muscle derived from terminal ileum of adult male guinea pigs (Charles River, 400-600 g.) are mounted in 5-ml. organ baths containing oxygenated Krebs solution containing 1 μM each of atropine and pyrilamine maintained at 30-33 C. and connected to isometric transducers. Following tissue equilibration and repeated washing (45-60 min.), SP or an appropriate reference agonist is added cumulatively to the bath and contractions of the tissue are recorded. The bath is washed thoroughly and 30-45 min. is allowed to elapse before construction of a second reference agonist curve to assure reproducibility of the responses. Test compounds are similarly evaluated for agonist activity up to a maximum concentration of 10-100 μM. […] When appropriate, relative molar potency ratios are calculated (EC50 reference/ED50 test drug). […] The effects of several concentrations of test antagonist, pooled across separate experiments, provide dose-ratio (EC50 shift) data for a standard Schild plot analysis, with computation of the pA2.

[2] = 30 μM test compound, rat submaxillary gland tissue (Examples 1-34)

T1 sequence (P14600 whole entry): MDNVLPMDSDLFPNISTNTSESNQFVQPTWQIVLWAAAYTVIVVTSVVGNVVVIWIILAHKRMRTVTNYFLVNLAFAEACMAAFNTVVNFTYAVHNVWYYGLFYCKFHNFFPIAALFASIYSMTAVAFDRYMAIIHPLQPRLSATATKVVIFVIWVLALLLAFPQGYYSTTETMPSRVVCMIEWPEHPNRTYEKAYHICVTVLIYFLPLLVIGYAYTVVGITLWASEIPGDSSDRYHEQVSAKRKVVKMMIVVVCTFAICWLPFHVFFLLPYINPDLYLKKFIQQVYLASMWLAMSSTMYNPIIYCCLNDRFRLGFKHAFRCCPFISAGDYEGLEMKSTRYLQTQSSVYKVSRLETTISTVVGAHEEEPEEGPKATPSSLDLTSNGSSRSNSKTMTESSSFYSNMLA

Row | Compound | inhibition at 30 µM (SP receptor; [2]) | Guinea Pig Ileum % Agonism (potency relative to SP) [1] | also measured
1 | CSCC[C@H](NC(=O)[C@H](CC(C)C)NC(=O)CNC(=O)[C@@H](Cc1ccccc1)NC(=O)[C@H](Cc1ccccc1)NC(=O)[C@@H]1CCCN1)C(N)=O [Example 7, HPro-Phe-DPhe-Gly-Leu-MetNH2] (H-PF[dF]GLM-NH2) | 48% | 0.7% | 
2 | CCCC[C@H](NC(=O)[C@H](CC(C)C)NC(=O)CNC(=O)[C@H](Cc1ccccc1)NC(=O)[C@H](Cc1ccccc1)NC(=O)[C@@H]1CCCN1)C(N)=O [Example 8, HPro-Phe-Phe-Gly-Leu-NleNH2] (H-PFFGL[Nle]-NH2) | 49% | 3% | 
3 | CSCC[C@H](NC(=O)[C@@H](CC(C)C)NC(=O)CNC(=O)[C@H](Cc1ccccc1)NC(=O)[C@H](Cc1ccccc1)NC(=O)[C@@H]1CCCN1)C(N)=O [Example 4, HPro-Phe-Phe-Gly-DLeu-MetNH2] (H-PFFG[dL]M-NH2) | 17% | 0.3% | 
4 | CSCC[C@@H](NC(=O)[C@H](CC(C)C)NC(=O)CNC(=O)[C@H](Cc1ccccc1)NC(=O)[C@H](Cc1ccccc1)NC(=O)[C@@H]1CCCN1)C(N)=O [Example 6, HPro-Phe-Phe-Gly-Leu-DMetNH2] (H-PFFGL[dM]-NH2) | 8% | 4% | 
5 | CSCC[C@H](NC(=O)[C@H](CC(C)C)NC(=O)CNC(=O)[C@H](Cc1ccccc1)N(C)C(=O)[C@H](Cc1ccccc1)NC(=O)[C@@H]1CCCN1)C(N)=O [Example 2, HPro-Phe-MePhe-Gly-Leu-MetNH2] (H-PF[NMeF]GLM-NH2) | 25% |  | 
6 | HPro-Phe-D,LBpa-Gly-Leu-MetNH2 [Example 18] |  | 33% | 3H-SP Binding % Inhibition (SP receptor; [2]): 90%
7 | CSCC[C@H](NC(=O)[C@H](CC(C)C)NC(=O)CNC(=O)[C@H](Cc1ccccc1)NC(=O)[C@H](Cc1ccccc1)NC(=O)[C@H]1CCCN1)C(N)=O [Example 10, HDPro-Phe-Phe-Gly-Leu-MetNH2] (H-[dP]FFGLM-NH2) | 65% | 10% | 
8 | CSCC[C@H](NC(=O)[C@H](CC(C)C)NC(=O)CN(C)C(=O)[C@H](Cc1ccccc1)NC(=O)[C@H](Cc1ccccc1)NC(=O)[C@@H]1CCCN1)C(N)=O [Example 3, HPro-Phe-Phe-Sar-Leu-MetNH2] (H-PFF[Sar]LM-NH2) | 93% | 27% | 
9 | NCC(CC(=O)O)c1ccc(Cl)cc1 (stereo not shown) [baclofen, reference compound] |  |  | effect on 3H-SP binding (specificity) (SP receptor): do not affect
10 | CSCC[C@H](NC(=O)[C@H](CC(C)C)NC(=O)[C@@H](Cc1ccccc1)NC(=O)[C@H](Cc1ccccc1)NC(=O)[C@H](NC(=O)[C@@H]1CCCN1)c1ccccc1)C(N)=O [Example 28, HPro-DPhg-Phe-DPhe-Leu-MetNH2] (H-P[dPhg]F[dF]LM-NH2) |  |  | inhibition at 30 µM (SP receptor): 33%
11 | CSCC[C@H](NC(=O)[C@H](CC(C)C)N(C)C(=O)CNC(=O)[C@H](Cc1ccccc1)NC(=O)[C@H](Cc1ccccc1)NC(=O)[C@@H]1CCCN1)C(N)=O [Example 5, HPro-Phe-Phe-Gly-MeLeu-MetNH2] (H-PFFG[NMeL]M-NH2) | 75% |  | 
12 | CSCC[C@H](NC(=O)[C@H](CC(C)C)NC(=O)[C@@H](C)NC(=O)[C@H](Cc1ccccc1)NC(=O)[C@H](Cc1ccccc1)NC(=O)[C@@H]1CCCN1)C(N)=O [Example 1, HPro-Phe-Phe-DAla-Leu-MetNH2] (H-PFF[dA]LM-NH2) | 17% | 0.7% | 
13 | COc1cc(CNC(=O)CCCC/C=C/C(C)C)ccc1O [capsaicin, reference compound] |  |  | effect on 3H-SP binding (specificity) (SP receptor): do not affect
14 | CSCC[C@H](NC(=O)[C@H](CC(C)C)NC(=O)CNC(=O)[C@H](Cc1ccccc1)NC(=O)[C@@H](Cc1ccccc1)NC(=O)[C@@H]1CCCN1)C(N)=O [Example 9, HPro-DPhe-Phe-Gly-Leu-MetNH2] (H-P[dF]FGLM-NH2) | 22% | 0.0009% | Guinea Pig Ileum pA2 [1]: 5.6

The next lines start with results.

Row | inhibition at 30 µM (SP receptor; [2]) | Compound | Guinea Pig Ileum % Agonism (potency relative to SP) [1] | also measured
15 | 10% | CSCC[C@H](NC(=O)[C@H](CC(C)C)N1CC[C@H](NC(=O)[C@H](Cc2ccccc2)NC(=O)[C@H](Cc2ccccc2)NC(=O)[C@@H]2CCCN2)C1=O)C(N)=O [Example 14, HPro-Phe-Phe-CabLeu-MetNH2] |  | 
16 | 40% | CSCC[C@H](NC(=O)[C@H](CC(C)C)NC(=O)[C@@H](Cc1ccccc1)NC(=O)CN(Cc1ccccc1)C(=O)[C@@H](Cc1ccccc1)NC(=O)[C@@H]1CCCN1)C(N)=O [Example 30, HPro-DPhe-Bgl-DPhe-Leu-MetNH2] (H-P[dF][Nphe][dF]LM-NH2) |  | 
17 | 42% | CSCC[C@H](NC(=O)[C@H](CC(C)C)NC(=O)[C@H](Cc1ccncc1)NC(=O)[C@H](Cc1ccccc1)NC(=O)[C@H](Cc1ccccc1)NC(=O)[C@@H]1CCCN1)C(N)=O [Example 19] (H-PFF[4Pal]LM-NH2) |  | 
18 | 20% | CSCC[C@H](NC(=O)[C@H](CC(C)C)NC(=O)[C@@H](Cc1ccncc1)NC(=O)[C@H](Cc1ccccc1)NC(=O)[C@H](Cc1ccccc1)NC(=O)[C@@H]1CCCN1)C(N)=O [Example 20] (H-PFF[d4Pal]LM-NH2) |  | 
19 | 11% | CSCC[C@H](NC(=O)[C@H](CC(C)C)NC(=O)CN(C)C(=O)[C@H](Cc1ccccc1)N(C)C(=O)[C@H](Cc1ccccc1)NC(=O)[C@@H]1CCCN1)C(N)=O [Example 11, HPro-Phe-MePhe-Sar-Leu-MetNH2] (H-PF[NMeF][Sar]LM-NH2) |  | 
20 | 15% | CSCC[C@H](NC(=O)[C@H](CC(C)C)NC(=O)[C@H](CN)NC(=O)[C@H](Cc1ccccc1)NC(=O)[C@H](Cc1ccccc1)NC(=O)[C@@H]1CCCN1)C(N)=O [Example 13, HPro-Phe-Phe-LDap-Leu-MetNH2] (H-PFF[Dap]LM-NH2) |  | 
21 | 10% | CSCC[C@H](NC(=O)[C@H](CC(C)C)NC(=O)[C@H](CCC(=O)O)NC(=O)[C@H](Cc1ccccc1)NC(=O)[C@H](Cc1ccccc1)NC(=O)[C@@H]1CCCN1)C(N)=O [Example 15, HPro-Phe-Phe-Glu-Leu-MetNH2] (H-PFFELM-NH2) | 0.004% | 
22 | 20% | CSCC[C@H](NC(=O)[C@H](CC(C)C)NC(=O)[C@@H](CCCNC(=N)N)NC(=O)[C@H](Cc1ccccc1)NC(=O)[C@@H](Cc1c[nH]c2ccccc12)NC(=O)[C@@H]1CCCN1)C(N)=O [Example 34, HPro-DTrp-Phe-DArg-Leu-MetNH2] (H-P[dW]F[dR]LM-NH2) | 5.2% | 
23 | 40% | CSCC[C@H](NC(=O)[C@H](CC(C)C)NC(=O)[C@@H](Cc1ccccc1)NC(=O)CN(CCc1ccccc1)C(=O)[C@@H](Cc1ccccc1)NC(=O)[C@@H]1CCCN1)C(N)=O [Example 32, HPro-DPhe-Pgl-DPhe-Leu-MetNH2] (H-P[dF][Gly(NCH2CH2Ph)][dF]LM-NH2) |  | 
24 | 15% | CSCC[C@H](NC(=O)[C@H](CC(C)C)NC(=O)[C@@H](CCCCN)NC(=O)[C@H](Cc1ccccc1)NC(=O)[C@@H](Cc1c[nH]c2ccccc12)NC(=O)[C@@H]1CCCN1)C(N)=O [Example 33, HPro-DTrp-Phe-DLys-Leu-MetNH2] (H-P[dW]F[dK]LM-NH2) |  | 
25 | 13% | CSCC[C@H](NC(=O)[C@H](CN(C)C)NC(=O)CNC(=O)[C@H](Cc1ccccc1)NC(=O)[C@H](Cc1ccccc1)NC(=O)[C@@H]1CCCN1)C(N)=O [Example 16, HPro-Phe-Phe-Gly-Gal-MetNH2] (H-PFFG[Dap(Me2)]M-NH2) |  | 
